One data set has as its system S. aureus (ATCC 29213). The data set can be described thus: Microdilution susceptibility testing. Particulars: Staphylococcus aureus; for MIC: ATCC29213; for IC50: ATCC29213, read-out: IC50 ± SEM. A general note: In broth dilution the organism is exposed to a series of concentrations in liquid medium.
Data set [1] has as its system S. saprophyticus (ATCC 15305). Put plainly: Microdilution susceptibility testing. The settings on record: for MIC: 18-24 h; for IC50: ATCC15305, read-out: IC50 ± SEM.
A further data set relates to E. coli (ATCC 25922). The data set can be described thus: Microdilution susceptibility testing. Particulars: Escherichia coli, ATCC25922.
The test system of data set [2] is P. aeruginosa (ATCC 27853). The data set can be described thus: Microdilution susceptibility testing. Particulars: Pseudomonas aeruginosa; for MIC: ATCC27853; for IC50: ATCC27853, read-out: IC50 ± SEM.
Data set [3] deals with Gram-positive and Gram-negative bacteria. Put plainly: Antibacterial activity against the bacteria of Table 1. Particulars: for antibacterial activity: all bacteria presented in Table 1, result in words.
Data set [4] concerns K. pneumoniae (ATCC 13883). The data set can be described thus: Microdilution susceptibility testing. Particulars: Klebsiella pneumoniae; for MIC: ATCC13883; for IC50: ATCC13883, read-out: IC50 ± SEM.
Another data set has as its system B. cereus (ATCC 10876). Put plainly: Microdilution susceptibility testing. The settings on record: Bacillus cereus; for MIC: ATCC10876; for IC50: ATCC10876, read-out: IC50 ± SEM.
The subject of a further data set is CIMRSA 2. The data set can be described thus: Microdilution susceptibility testing. The settings on record: Staphylococcus aureus; for IC50: read-out: IC50 ± SEM.
In data set [5] the test system is CIMRSA 1. Put plainly: Microdilution susceptibility testing. The settings on record: Staphylococcus aureus; for IC50: read-out: IC50 ± SEM.
Data set [6] in a line: Cytotoxicity testing, MTT assay. The format is cell-based. Particulars: human. On the technique in general: Tetrazolium dyes change colour on reduction, which living cells bring about.
A further data set relates to MRSA ATCC 43300. The data set can be described thus: Microdilution susceptibility testing. The settings on record: Staphylococcus aureus, ATCC43300|MRSA; for IC50: read-out: IC50 ± SEM.
Data set [7] concerns CIMRSA 1. Put plainly: Determination of bactericidal concentration. The format is cell-based, Clinical isolate of methicillin-resistant S. aureus. The settings on record: CIMRSA 1 and 2 (both strains, text summary).
Data set [8] deals with Leishmania donovani amastigotes. The settings on record: L. donovani amastigotes; ref Tasdemir et al., 2010; cited from earlier work.
Data set [9] has as its target L. donovani DNA topoisomerase IB enzyme (LdTopIB). The settings on record: ref Carballeira et al., 2012; cited from earlier work.
Data set [10] concerns Mycobacterium tuberculosis. The settings on record: ref Carballeira et al., 2006; cited from earlier work.
For data set [11], the system named is Neisseria gonorrhoeae, Neisseria meningitidis, and Bacteroides fragilis. Particulars: N. gonorrhoeae, B. fragilis, ref Konthikamee et al., 1982; cited from earlier work.
Setting [12] is: Staphylococcus saprophyticus, ATCC15305, S. saprophyticus ATCC 15305, 37°C.

Converted amounts (≈) assume the structure as drawn. Some results are limits rather than exact numbers.

Consider `CCCCCCCCCCCCCC#CCO` [Compound 2-HDOH, 2-Hexadecyn-1-ol], for which the MIC (against S. aureus (ATCC 29213); in data set [1] (setting [12]); against E. coli (ATCC 25922); in [2]; in [4]; in the data set on B. cereus (ATCC 10876)) was more than 1000 µg/mL in each case. Moreover, in data set [3], the antibacterial activity entry is on record as “not active”.

Take `CCCCCCCCCCCCCCCC#CCO` [Compound 2-ODOH, 2-Octadecyn-1-ol]: the MIC (with S. aureus (ATCC 29213); in data set [1] (setting [12]); against E. coli (ATCC 25922); in [2]; in data set [4]; against B. cereus (ATCC 10876)) was more than 1000 µg/mL throughout.

On to `COc1cccc(OC)c1C(=O)N[C@@H]1C(=O)N2[C@@H]1SC(C)(C)[C@@H]2C(=O)O` [Methicillin, reference compound], for which the MIC against S. aureus (ATCC 29213) is 0.06 µg/mL (≈ 0.158 µM); in [1] (setting [12]), 0.12 µg/mL (≈ 0.315 µM); in the data set with E. coli (ATCC 25922), more than 1000 µg/mL; in [2] it was more than 1000 µg/mL; against CIMRSA 2, 31.3 µg/mL (≈ 82.3 µM); with CIMRSA 1 [5] it was 7.8 µg/mL (≈ 20.5 µM). Also, the MIC in data set [4] came out at 0.98 µg/mL (≈ 2.58 µM); in the data set on MRSA ATCC 43300, 1.95 µg/mL (≈ 5.13 µM); with B. cereus (ATCC 10876), 62.5 µg/mL (≈ 164 µM). Further, the IC50 (in general, the point on the concentration scale where inhibition reaches its midpoint) with S. aureus (ATCC 29213) was 0.03 µg/mL (≈ 0.0789 µM); in [1] (Staphylococcus saprophyticus), 0.06 µg/mL (≈ 0.158 µM); in the data set with CIMRSA 2, 11.8 µg/mL (≈ 31 µM); in the data set on CIMRSA 1 [5], 2.2 µg/mL (≈ 5.78 µM); in data set [4], 0.36 µg/mL (≈ 0.946 µM); with MRSA ATCC 43300, 0.98 µg/mL (≈ 2.58 µM). In the data set on B. cereus (ATCC 10876), the IC50 was 38.2 µg/mL (≈ 100 µM). The same compound registered an IC50 at 3 days in [6] of 86.1 ± 0.5 µg/mL (≈ 226 µM).

Turning to `CCCCCCCCCCCCCC#CC(=O)O` [Compound 2-HDA, 2-hexadecynoic acid], the MIC is 15.6 µg/mL (≈ 61.8 µM) against S. aureus (ATCC 29213); 15.6 µg/mL (≈ 61.8 µM) in data set [1] (S. saprophyticus ATCC 15305, 37°C); 15.5 µg/mL (≈ 61.4 µM) in data set [1] (setting [12]); more than 1000 µg/mL in the data set with E. coli (ATCC 25922); 125 µg/mL (≈ 495 µM) in [2]; 3.9 µg/mL (≈ 15.5 µM) in the data set with CIMRSA 2. In addition, the MIC in the data set on CIMRSA 1 [5] was 3.9 µg/mL (≈ 15.5 µM); against CIMRSA 1 [5] (MRSA), 3.9 µg/mL (≈ 15.5 µM); in data set [3] (read-out: MICs) it was 7.8 to 125 µg/mL (≈ 30.9 to 495 µM); in data set [4], 7.8 µg/mL (≈ 30.9 µM); in the data set with MRSA ATCC 43300 it was 15.6 µg/mL (≈ 61.8 µM); with B. cereus (ATCC 10876) it was 31.3 µg/mL (≈ 124 µM). Also, the IC50 is 6.2 µg/mL (≈ 24.6 µM) in the data set on S. aureus (ATCC 29213); 8.8 µg/mL (≈ 34.9 µM) in data set [1] (Staphylococcus saprophyticus); 87.8 µg/mL (≈ 348 µM) in [2]; 3.4 µg/mL (≈ 13.5 µM) with CIMRSA 2; 3.3 µg/mL (≈ 13.1 µM) in the data set on CIMRSA 1 [5]; 17.8 µM in data set [8]. Besides, the IC50 in data set [4] is 6.1 µg/mL (≈ 24.2 µM); in data set [9] it was 28.7 µM; in the data set on MRSA ATCC 43300 it was 9.4 µg/mL (≈ 37.2 µM); with B. cereus (ATCC 10876) it was 17.2 µg/mL (≈ 68.1 µM). The same compound displayed a bactericidal concentration in the data set on CIMRSA 1 [7] of 7.8 µg/mL. In data set [6] (peripheral blood mononuclear cells (PBMC)), this compound gave an IC50 at 3 days of 57.2 ± 0.1 µg/mL (≈ 227 µM). Further, the “minimum inhibitory concentrations (MICs)” value in [10] is 141 to 145 µM. Besides, in data set [11], the active concentrations was 5.0 to 21.4 µM.

`CCCCCCCCCCCCCC#CCOC1CCCCO1` (stereo not shown) [Compound 2-HDOTHP, 2-(2-Hexadecynyloxy)-tetrahydro-2H-pyran]: the MIC (in the data set on S. aureus (ATCC 29213); in [1] (setting [12]); in the data set on E. coli (ATCC 25922); in [2]; in data set [4]; in the data set with B. cereus (ATCC 10876)) was more than 1000 µg/mL in each case. Also, the antibacterial activity entry in data set [3] is “inactive”.

Regarding `O=C(O)c1cn(C2CC2)c2cc(N3CCNCC3)c(F)cc2c1=O` [Ciprofloxacin, reference compound], the MIC in the data set on S. aureus (ATCC 29213) was 0.25 µg/mL (≈ 0.754 µM); in data set [1] (setting [12]), less than 0.002 µg/mL; with E. coli (ATCC 25922), less than 0.008 µg/mL; in [2], 0.24 µg/mL (≈ 0.724 µM); in data set [4], 0.24 µg/mL (≈ 0.724 µM); in the data set on MRSA ATCC 43300, 0.5 µg/mL (≈ 1.51 µM). The compound further yielded an MIC in the data set on B. cereus (ATCC 10876) of 0.05 µg/mL (≈ 0.151 µM). The IC50 in the data set on S. aureus (ATCC 29213) turned out to be 0.14 µg/mL (≈ 0.423 µM); in data set [2], 0.11 µg/mL (≈ 0.332 µM); in data set [4], 0.13 µg/mL (≈ 0.392 µM); with MRSA ATCC 43300, 0.2 µg/mL (≈ 0.604 µM); in the data set on B. cereus (ATCC 10876), 0.03 µg/mL (≈ 0.0905 µM). Besides, in data set [6], the IC50 at 3 days worked out at 66.4 ± 0.6 µg/mL (≈ 200 µM).

The values above are taken from article PMC4048129 (Chemistry and physics of lipids, 2013).
